This note sets out measurements from patent US20110207694A1, “MAMMALIAN HYPOTHALAMIC NUTRIENT MODULATION OF GLUCOSE METABOLISM” (priority 2005, published 2011).

“Also recorded” adds a separate entry of the source. A value given as a limit tells only on which side of the number the result lay.

The test system of data set [1] is conscious rats. Description: ICV glucose or lactate infusion with pancreatic basal insulin clamp: plasma glucose and liver glucose production. The format is in vivo, rat. An excerpt:
We hypothesize that the hypothalamic sensing of glucose-derived pyruvate is a novel regulator of endogenous glucose production (GP). […] We propose that an increase in neuronal pyruvate levels is a hypothalamic signal of nutrient availability.
Long chain fatty acids in the brain decrease glucose production (GP) by the liver via activation of hypothalamus ATP-sensitive (KATP) channels. Here we tested whether (A) direct administration of glucose in the third cerebral ventricle can alter glucose production by the liver, and (B) whether this effect requires its metabolism in the TCA cycle.

In data set [2] the test system is high fat-fed rats. The data set is described as follows: Central glucose or lactate in regular chow vs 3-day high fat diet-fed animals: glucose production. It counts as in vivo, rat. Particulars: central administration. An excerpt:
The latter is an excellent model for diet-induced insulin resistance.

The next data set relates to rats. The data set is described as follows: Food intake after central (ICV) glucose or lactate. It counts as in vivo, rat.
A further data set deals with male Sprague-Dawley rats. Description: ICV infusion: plasma triglycerides and metabolites under basal and pancreatic clamp conditions. The format is in vivo, rat. The source says: Animal preparation. We studied 10-week-old male Sprague-Dawley rats. Rats underwent stereotaxic surgery to indwell single catheters in the third cerebral ventricle {intracerebroventricular (ICV)(Obici et al., 2001) or bilateral catheters into the mediobasal hypothalamus (Lam et al., 2005c). One week later, we placed indwelling catheters in the internal jugular vein and carotid artery for sampling and infusion during the in vivo experiments (Obici et al., 2001). Recovery from surgery was monitored by measuring daily food intake and weight gain for 4-5 days after surgery.
(§1) Infusion protocols. The in vivo infusion experiments lasted a total of 360 min, and the experiments were carried out in rats that had their food removed ˜5 h before the experiments. Thus, at the time of the experiment, the rats are in post-absorptive state since their stomach should be completely emptied by 5 h fasting. […] This ICV glucose protocol physiologically elevate hypothalamic glucose concentration by ˜70% as previously described (Lam et al., 2005b) and is similar to that induced by a doubling of the circulating glucose levels (Lam et al., 2005b). During the ICV infusions, we monitored the plasma metabolite levels under pre-infused (0 min), basal (180-240 min) and pancreatic clamp (300-360 min) conditions. […] A basal insulin-pancreatic clamp was performed in the final 2 h (240-360 min) of the study as previously described (Lam et al., 2005b). In brief, a continuous infusion of insulin (1 mU/kg.min) and somatostatin (3 μg/kg.min) was administered, and a variable infusion of a 25% glucose solution was started and periodically adjusted to clamp and maintain the plasma glucose concentration at ˜8 mM. […] To examine the time-dependent effects of ICY glucose on plasma triglycerides, ICY (5 μl/h) 2 mM D-glucose or mannitol was administrated for 210 min and plasma triglyceride levels were monitored at 0, 20, 60, 120, 180, 210 min. […] Plasma triglycerides were monitored under basal, pancreatic clamp and tyloxapol-treated conditions. At the end of the infusion experiments, rats were anesthetized and tissue samples were freeze-clamped in situ with aluminum tongs pre-cooled in liquid nitrogen. All tissue samples were stored at −80° C. for subsequent analysis.
Biochemical analyses. Plasma glucose concentrations were measured by the glucose oxidase method (Glucose Analyzer II, Beckman Instruments, Inc., Fullerton, Calif.). […] FFA concentrations were determined by an enzyme assay in accordance with the manufacturer's specifications (Waco Pure Chemical Industries. Osaka. Japan). Plasma insulin concentrations (with rat and porcine insulin standards) were measured by radioimmunoassay (RIA). Plasma adiponectin concentrations were measured by RIA (Linco Inc., Austin, Tex., USA). Liver triglycerides were measured as described (Muse et al., 2004).
Calculations. Statistical analysis was done by unpaired Student's t test or analysis of variance as appropriate. Data are presented as means±SEM. All values were collapsed into a single value for each animal prior to the calculation of mean. The time period 180-240 min was averaged for the basal and the time period 300-360 min was averaged for the clamp conditions.

A further data set has as its system hepatic VLDL secretion. The data set is described as follows: Lipoprotein (VLDL) secretion studies with tyloxapol; NMR particle size. It counts as in vivo, rat. Particulars: increased central metabolism of lactate to pyruvate, rats (Example 3). The protocol:
Lipoproteins secretion and particles concentration and size measurements. Tyloxapol (600 mg/kg; ˜1 min) was intravenously injected to inhibit endogenous lipoprotein lipase. This high dose of tyloxapol ensured complete inhibition of triglyceride clearance during VLDL secretion studies. Plasma samples were taken every 30 min for triglycerides analysis and for lipoprotein profiling. Plasma VLDL particles concentration and size were determined by nuclear magnetic resonance spectroscopy (lipoprofile-II test) at Liposcience as previously described (Otvos et al., 1991; 1992). This NMR lipoprofile-II test is based on the assumption that each plasma lipoprotein particle of a particular size gives its own characteristic lipid NMR signal. The intensity of the signal is also in proportion to the concentration of the particle. The diameter range for large, medium and small VLDL is >60 nm, 35-60 nm, and 27-35 nm, respectively.
Selective hepatic branch vagotomy. The surgeries were performed as described (Lam et al., 2005c).
Treatment with SCD1 ASO. Five and two days before the lipoprotein secretion studies, rats received a single intra-peritoneal injection of either SCD1 or scrambled (SCR) ASO (100 mg/kg of body weight). […] In a separate set of studies, rats received intra-portal injection of either SCD1 or SCR ASO (40 mg/kg of body weight) (Gutierrez-Juarez et al., 2006) three days before the lipoprotein secretion studies.
Portal oleate infusion. Chronic portal catheter was implanted and 7 days were allowed for rat recovery. Oleic acid (45 mM; dissolved in 45% HBP) was infused at a rate of 40 μl/h for 2.5 h (1 h before the 90 min lipoprotein secretion studies). This dose enabled the reconstitution of hepatic oleyl-CoA levels back to normal during portal SCD1 ASO (FIG. 11c) or ICV glucose studies (FIG. 11d).

Data set [3] has as its system high fat-fed rats. Description: ICV glucose or lactate in high fat-fed rats: plasma triglycerides and VLDL secretion. The format is in vivo, rat. How it is done:
High fat feeding. Male Sprague-Dawley rats were fed a highly palatable high fat diet for three days. These rats developed hyperinsulinemia and hepatic insulin resistance (Morgan et al., 2004). […] In a separate set of studies, lipoprotein secretion studies were performed at the beginning of the ICV infusions.

The test system of data set [4] is conscious rats. Description: Intravenous lactate infusion with or without MBH oxamate: plasma TG and hepatic TG-VLDL production. The format is in vivo, rat. The protocol: as §1
VLDL are decreased in the hours following an acute bout of exercise. […] To investigate the mechanism by which lactate lowers plasma TG levels, the rate of production of hepatic TG-enriched VLDL was measured.

Data set [5] relates to conscious rats. The data set is described as follows: Circulating lactate infusion with central LDH inhibitor or KATP blocker: glucose kinetics during pancreatic clamps. The settings on record: pancreatic clamps.

With `C[C@H](O)C(=O)O` [lactate, L-lactate], the circulating glucose levels result in the data set with conscious rats [1] (central (ICV) administration) is “sufficient to markedly diminish circulating glucose levels; also recorded: lowered circulating glucose levels”. In addition, in the data set on conscious rats [1] (central administration), the gluconeogenesis and glycogenolysis result was “inhibited gluconeogenesis and glycogenolysis”; the “liver glucose production, G6Pase flux and mRNA” value is “reduced liver glucose production, G6Pase flux and mRNA”. This compound also displayed a plasma glucose concentrations with conscious rats [1] (four hour ICV infusion 5 μl/h (glucose 2 mM, lactate 5 mM), control 150±4) of 129 ± 3 mg/dL. Besides, the “exogenous glucose infusion rate required to maintain euglycemia” value in the data set on conscious rats [1] (pancreatic basal insulin clamps, central administration) is given as “increased exogenous glucose infusion rate”. Also, the “GP (glucose production)” value in the data set with conscious rats [1] (pancreatic clamps, plasma glucose and insulin at basal, ICV infusion, control 10.4±0.1 (glucose), 11.7±0.6 (lactate)) was found to be 6.5 ± 0.6 mg/kg/min. Besides, the glucose production result with high fat-fed rats [2] (3-day high fat diet-fed animals) is reported as “entirely preserved; also recorded: lowered glucose production”. For the same compound, the glucose production entry in the data set on high fat-fed rats [2] (regular chow animals) is recorded as “lowered glucose production”. Besides, the food intake overnight result in the data set on rats (central administration) is recorded as “inhibits food intake overnight”. For the same compound, in the data set with rats (the day following ICV injection), the “decrease in food intake” value is recorded as about 40%. Also, in the data set on male Sprague-Dawley rats (ICV infusion), the “plasma free fatty acids levels” value is listed as “did not affect plasma free fatty acids levels”. Further, the plasma triglyceride levels result in the data set on male Sprague-Dawley rats (ICV infusion (glucose 2 mM, L-lactate 5 mM)) is recorded as “markedly decreased plasma triglycerides levels”. For the same compound, the “suppression of plasma TG levels” value in the data set with male Sprague-Dawley rats (increased central metabolism of lactate to pyruvate, rats (Example 3)) is about 50%. The “suppression of hepatic TG-enriched VLDL production” value with hepatic VLDL secretion is on record as about 40%. Moreover, the “rate of appearance of VLDL-triglycerides in plasma” value in the data set on high fat-fed rats [3] (HF rats, tyloxapol) was “decreased the rate of appearance of VLDL-triglycerides in plasma to levels similar to those of SC rats”. For the same compound, the “circulating levels of triglycerides” value with high fat-fed rats [3] (high fat-fed rats) is “effectively lowered the circulating levels of triglycerides to levels similar to those of rats on a standard chow”. Further, in the data set with conscious rats [4] (i.v. lactate 100 μmol•kg-1•min-1, i.v. saline 0.28±0.09), the “plasma TG levels” value turned out to be 0.11 ± 0.02 mM. Moreover, the “rate of production of hepatic TG-enriched VLDL” value in the data set with conscious rats [4] (i.v. lactate infusion, i.v. saline 0.059±0.003) amounted to 0.041 ± 0.002 mM/min. Moreover, in the data set on conscious rats [4] (i.v. lactate vs i.v. saline), the “decrease in VLDL production” value was determined as 31% and the “lowering of plasma TG levels” value is given as over 50%. The VLDL secretion result with conscious rats [4] (physiological increase in plasma lactate) is reported as “sufficient to inhibit VLDL secretion”. Further, in the data set with conscious rats [4] (~two-fold increase in circulating lactate, basal and clamp conditions), the plasma triglyceride entry is “significant decrease in plasma triglyceride in both conditions”. In addition, the glucose infusion kinetics result in the data set with conscious rats [5] (intravenous infusion of lactate alone) is on record as “did not affect glucose infusion kinetics”. The “elevation of plasma lactate” value with conscious rats [5] (intravenous infusion of lactate) is about 3 fold.
